No end group written: not given here.
Tests used:
[1] = molecular target: T1, extracellular domain of human PD-L1 (hPD-L1) (Homo sapiens, UniProt Q9NZQ7); assay: BIACORE SPR binding to immobilized rhPD-L1; details: 1 μM peptide
T1 construct: Recombinant hPD-L1 ectodomain was immobilized onto the gold surface of a CM5 sensor chip
Procedure: To test the activity of all the selected peptides, surface plasmon resonance (SPR) spectroscopy (BIACORE™ T200, at […]) was used to measure their binding affinities to the extracellular domain of human PD-L1 (hPD-L1). Recombinant hPD-L1 ectodomain was immobilized onto the gold surface of a CM5 sensor chip by direct amine coupling.
1 μM BSA was used as the negative control. The chip was regenerated by 10 mM Glycine-HCl, pH 2.5(FIG. 3E).
1 μM of various PD-1 peptides were injected over the chip for 1 min at 10 μl/min followed by 1 min dissociation and then 1 min regeneration with 10 mM Glycine-HCl, pH 2.5 for each run.

[2] = tested on: tumor infiltrating lymphocytes; assay: Analysis of tumor infiltrating lymphocytes from peptide-vaccinated mice; format: in vivo, Balb/c mice
Procedure: CD4 (20A) and CD8 (20B) T cells were determined by flow cytometry (gated on CD45+ cells). Foxp3+CD25+CD4 Tregs ([…]) were determined by intracellular staining (gated on CD45+CD4+ cells). […] Group means were calculated and compared with Anova
FIGS. 21A and 21B show Analysis of tumor infiltrating lymphocytes from peptide-vaccinated mice. […] Tumor infiltrating cells were isolated from combined tumor tissue from […] (group A to F) of treated mice in first in vivo experiment. Tumor infiltrating cells were isolated from each mouse in group 5 and 6 from second in vivo experiment. CD4 and CD8 cells were determined by flow cytometry (gated on CD45+ infiltrating cells). FoxP3 expression on CD25+CD4+ T cells were determined by intracellular staining (gated on CD45+CD4+ cells). […] CD4 and CD8 cells were determined by flow cytometry (gated on CD45+ infiltrating cells). FoxP3 expression on CD25+CD4+ T cells were determined by intracellular staining (gated on CD45+CD4+ cells). Group means were calculated and compared with Anova. Error bars denote s.e.m.
On the other hand, high numbers of T cells at the tumor site, especially CD8 T cells, is a key denominator for overall survival (OS) in cancer patients. […] Therefore, it was determined CD8/Treg ratio in TIC in tumor-bearing mice vaccinated with combination peptides or control peptide (described above). […] The cells were then incubated with mAbs to the cell-surface markers (CD45, CD4, CD8, CD25 Then the cells were fixed and permeabilized using Cytofix/Cytoperm solution (ebioscience) for 60 min at 4° C., followed by staining for FoxP3 for 30 min at 4° C. 80,000-100,000 live cell events were acquired on a FACSCantoII (BD) and analyzed using FlowJo software (Tree Star, Inc.). To differentiate TILs from tumor cells, the cells were first gated on CD45^+ cells. Then the CD4^+ (FIG. 20A) and CD8^+ (FIG. 20B) cells were analyzed. Tregs were represented by CD4^+CD25^+FoxP3^+ cells (FIG. 20C). GraphPad software (GraphPad Prism Software, Inc., San Diego, Calif., USA) was utilized for statistical analysis. Group means were calculated and compared with Anova. […]

CD4+CD25+FoxP3+ Tregs = assay: Immune-profiling of T cells in spleen and tumor by flow cytometry; format: in vivo, Balb/c mice
Procedure: CD4 and CD8 cells were determined by flow cytometry (gated on CD45+CD3+ cells). Foxp3+CD25+CD4 T regulatory cells were determined by intracellular staining. All CD4 and CD8 T cells were gated on CD45+CD3+ cells. Tregs were gated on CD45+CD3+CD4+ cells. Group A=control peptide, Group B=32-50; Group C=45-64; Group D=73-90; Group E=92-110; Group F=α-mouse PD-1 (positive control).
The tumor and tumor draining lymph nodes were collected for subsequent FACS analysis to study the immune response in mice. Cells suspensions were prepared from tissues either by mechanistic dissociation or by enzymatic digestion. The stained cells were analyzed with a LSR II flow cytometer (BD Biosciences) equipped with 3 excitation lasers at wavelengths 405, 488 and 633 nm. CD8+ T cells and CD4+CD25+ T cells from tumor leucocytes were purified either on a MACS column or FACSAria.
Flow cytometric analysis was performed to evaluate the expression of surface markers (CD45, CD3, CD4, CD8 and CD25) and transcription factor FoxP3 in splenocytes and tumor infiltrating T cells. Briefly, spleens were removed from mice and pressed through cell strainers, followed by a short incubation with red blood cells lysis buffer to lyse the red blood cells. Cells were then collected, washed, and resuspended in staining buffer (1% BSA in PBS). Similarly, tumors were removed from mice and pressed through cell strainers, followed by one wash with 37% percoll. The tumor cells were then washed with PBS and resuspended in staining buffer. The splenocytes and tumor cells were incubated with mAbs to the cell-surface markers for 30 min at 4° C. After washing twice with staining buffer, cells were fixed and permeabilized using Cytofix/Cytoperm solution for 60 min at 4° C. Cells were stained for FoxP3 for 30 min at 4° C. 80,000-100,000 live cell events were acquired on a FACSCanto (BD) and analyzed using FlowJo software (Tree Star, Inc.). To differentiate infiltrating cells from tumor cells, the tumor cells were first gated on CD45+ cells. Then the CD3+CD4+ and CD3+CD8+ cells were analyzed. Tregs were represented by CD4+CD25+FoxP3+ cells. […] Group E had the lowest Treg.

T1 sequence (Q9NZQ7 19-238 limits assumed): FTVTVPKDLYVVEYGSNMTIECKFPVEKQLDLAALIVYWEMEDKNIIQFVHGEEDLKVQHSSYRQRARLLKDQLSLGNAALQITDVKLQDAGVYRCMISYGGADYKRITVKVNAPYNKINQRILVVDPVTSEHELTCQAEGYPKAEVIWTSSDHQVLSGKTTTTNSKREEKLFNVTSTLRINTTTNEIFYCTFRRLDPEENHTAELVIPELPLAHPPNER

Substance: KLLSLIKGVIVHRLEGVE-GPSL-GAISLAPKAQIKESLRAEL-CONH2 (KLLSLIKGVIVHRLEGVEGPSLGAISLAPKAQIKESLRAEL-NH2) [MVF-PD-1 (92-110)]
- binding to immobilized rhPD-L1 (in words) [1]: bind
- SPR response of peptide binding to immobilized rhPD-L1 ([1]; 1 min at 10 μl/min): around 110 RU
- CD4 T cells or Treg cells in TILs, differences among groups ([2]; Anova): no significant differences
- CD8+ T cells in TILs compared to control peptide-vaccinated group ([2]; gated on CD45+ cells, Anova): significantly higher
- CD8/Treg ratio in TILs compared to control peptide-vaccinated group ([2]; mouse, in vivo): increased
- Treg population in spleen compared to Group A (negative control) (CD4+CD25+FoxP3+ Tregs; splenocytes, FIG. 10A): increased Treg population
- Tregs in tumor (CD4+CD25+FoxP3+ Tregs; tumor infiltrating cells, FIG. 10B): lowest Treg
